# Measured values taken from patent US20230265043A1, “CRYSTALLINE FORM OF PHENTERMINE HYDROCHLORIDE AND PROCESS FOR OBTAINING SAME” (priority 2020, published 2023).
# Where a name gives a salt, the structure may show the parent alone.
# Key:
# Type in all cases: physicochemical
# [1] = accelerated stability study in oven, 50° C. and 75% relative humidity, 30 days
# Procedure: Phentermine hydrochloride monohydrate's stability was tested by keeping 25 g of sample in an oven under conditions of 50° C. and 75% relative humidity for 30 days, as recommended by the FDA guide (Food and Drug Administration, Guidance for Industry Q1A(R2) Stability Testing of New Drug Substances and Products, November 2003 rev.2).
# [2] = DSC heating and X-ray diffraction after heating (conversion of monohydrate to anhydrous form); details: 10° C./min, nitrogen flow, XRD after heating at 60° C.
# Procedure: (B), when it converts to anhydrous form.
# (§1) The Differential Scanning calorimetry (DSC) experiment (FIG. 8) is performed under an inert atmosphere using nitrogen flow. Therefore, for phentermine hydrochloride monohydrate, such flow favors water loss, and the experiment will have underestimated results.
# Furthermore, the melting of the anhydrous form occurs around 200° C. in which the active also starts the decomposition process.
# [3] = dynamic water vapor desorption, relative humidity 95% to 0% at 25° C.; details: desorption 95% to 0% RH in steps of 5%, 25° C. (FIG. 9)
# Procedure: (§2) In all humidity conditions, the equilibrium criterion of mass variation of less than 0.001% was reached.
# as §1
# [4] = dynamic water vapor adsorption (DVS) at 60%, 80% and 95% relative humidity; details: for gain by mass at 80% relative humidity: 25° C., equilibrium reached; for hygroscopicity classification according to the British Pharmacopoeia, Ed. 2016: based on mass gain at 80% relative humidity
# Excerpt: as §2
# FIG. 13 presents dynamic water vapor sorption experiments under different humidity conditions for the anhydrous and monohydrate forms of phentermine hydrochloride. It is noted that in all analyzed humidity conditions, the system reached equilibrium, with the monohydrate form being much less hygroscopic than the anhydrous form. Phentermine hydrochloride in anhydrous form has a gain of about 7.5% by mass at 80% relative humidity, being classified as hygroscopic according to the British Pharmacopoeia (BF) (British Pharmacopoeia, Ed. 2016), which can cause dosing problems if the active is manipulated in high humidity conditions. In addition, the fact that the anhydrous form is hygroscopic allows its conversion to the monohydrate form in case of exposure to excessive amounts of water.
smiles,measurement,setting,value
"CC(C)(N)Cc1ccccc1 [Phentermine hydrochloride monohydrate, phentermine hydrochloride monohydrate]",polymorphic conversion after accelerated stability test (infrared absorption and X-ray diffraction),[1],no polymorphic conversion
same,temperature of conversion to the anhydrous form on heating,[2],above 50 °C
same,relative humidity in which the form is stable,[3],higher than 50%
same,times less hygroscopic than the anhydrous form,[4]; 80% relative humidity,10 times
same,gain by mass at 80% relative humidity,[4]; 80% relative humidity,about 0.75 % by mass
same,"hygroscopicity classification according to the British Pharmacopoeia, Ed. 2016",[4],slightly hygroscopic
"CC(C)(N)Cc1ccccc1.Cl [2-methyl-1-phenylpropan-2-amine, reference compound]",gain by mass at 80% relative humidity,[4]; 80% relative humidity,about 7.5 % by mass
same,"hygroscopicity classification according to the British Pharmacopoeia, Ed. 2016",[4],hygroscopic
